How the values were obtained:
Type in all cases: in vivo
Parameters in all cases: scale not given here
[1] = system: Echinochloa oryzicola Vasing; experiment: Herbicidal effects in paddy field soil treatment (Test Example 1); settings: for Herbicidal effects index, Echinochloa oryzicola Vasing: paddy field soil treatment, 1000 g of the active ingredient per hectare, wettable powder added dropwise on water surface, 21st day after treatment
How it was run: (§1)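 Sow seeds in puddled, leveled paddy soil; waterlog to 3 cm depth. On the following day apply water-diluted wettable powder onto the water surface (1000 g a.i./ha). Grow in greenhouse and assess herbicidal effect at day 21.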

[2] = system: Monochoria vaginalis (Burm. f.) Presl var. plantaginea (Roxb.) Solms-Laub.; experiment: as above; settings: for Herbicidal effects index, Monochoria vaginalis (Burm. f.) Presl var. plantaginea (Roxb.) Solms-Laub.: paddy field soil treatment, 1000 g of the active ingredient per hectare, wettable powder added dropwise on water surface, 21st day after treatment
How it was run: as §1

[3] = system: Scirpus juncoides Roxb. var. ohwianus. T. Koyama; experiment: as above; settings: for Herbicidal effects index, Scirpus juncoides Roxb. var. ohwianus. T. Koyama: paddy field soil treatment, 1000 g of the active ingredient per hectare, wettable powder added dropwise on water surface, 21st day after treatment
How it was run: as §1

[4] = system: Abutilon theophrasti medicus; experiment: Herbicidal effects in upland field soil treatment (Test Example 2); settings: 1000 g active ingredient per hectare, 21st day after treatment, criteria of Table 138
How it was run: (§2)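 Upland soil, seeds sown and covered → diluted WP sprayed uniformly onto soil surface (1000 L/ha; 1000 g a.i./ha) → greenhouse → effect scored day 21.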

[5] = system: Amaranthus viridis L.; experiment: as above; settings: 1000 g active ingredient per hectare, 21st day after treatment, criteria of Table 138
How it was run: as §2

[6] = system: Abutilon theophrasti medicus; experiment: Herbicidal effects in upland field foliar treatment (Test Example 3); settings: criteria of Table 138; for herbicidal effects on Abutilon theophrasti medicus: 1000 g of the active ingredient per hectare, 14th day after the treatment, wettable powder; for herbicidal effect (index) on Abutilon theophrasti medicus: 1000 g active ingredient per hectare, 14th day after treatment
How it was run: (§3)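 Seeds sown in upland soil, grown 2 weeks in greenhouse; whole-plant overhead spray of diluted wettable powder at 1000 g a.i./ha (1000 L/ha); kept in greenhouse; effects graded by criteria at 14 d.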

[7] = system: Amaranthus viridis L.; experiment: as above; settings: criteria of Table 138; for herbicidal effects on Amaranthus viridis L.: 1000 g of the active ingredient per hectare, 14th day after the treatment, wettable powder; for herbicidal effect (index) on Amaranthus viridis L.: 1000 g active ingredient per hectare, 14th day after treatment
How it was run: as §3

[8] = system: Echinochloa crus-galli (L.) P. Beauv. var. crus-galli; experiment: as above; settings: criteria of Table 138; for herbicidal effects on Echinochloa crus-galli (L.) P. Beauv. var. crus-galli: 1000 g of the active ingredient per hectare, 14th day after the treatment, wettable powder; for herbicidal effect (index) on Echinochloa crus-galli (L.) P. Beauv. var. crus-galli: 1000 g active ingredient per hectare, 14th day after treatment
How it was run: as §3

[9] = paddy field soil treatment (Test Example 1), criteria of Table 138

Structure (SMILES)	Herbicidal effects index, Echinochloa oryzicola Vasing [1]	Herbicidal effects index, Monochoria vaginalis (Burm. f.) Presl var. plantaginea (Roxb.) Solms-Laub. [2]	Herbicidal effects index, Scirpus juncoides Roxb. var. ohwianus. T. Koyama [3]	herbicidal effect (index) on Abutilon theophrasti medicus [4]	herbicidal effect (index) on Amaranthus viridis L. [5]	herbicidal effects on Abutilon theophrasti medicus [6]	herbicidal effects on Amaranthus viridis L. [7]	herbicidal effects on Echinochloa crus-galli (L.) P. Beauv. var. crus-galli [8]	herbicidal effect (index) on Echinochloa oryzicola Vasing [1, 9]	herbicidal effect (index) on Monochoria vaginalis (Burm. f.) Presl var. plantaginea (Roxb.) Solms-Laub. [2, 9]	herbicidal effect (index) on Scirpus juncoides Roxb. var. ohwianus. T. Koyama [3, 9]	herbicidal effect (index) on Abutilon theophrasti medicus [6]	herbicidal effect (index) on Amaranthus viridis L. [7]	herbicidal effect (index) on Echinochloa crus-galli (L.) P. Beauv. var. crus-galli [8]
Cc1ccc(-n2c(=O)c(C(=O)C3=C(O)CCCC3=O)nc3ccccc32)c(F)c1 [II-212]	5	5	5	5	5	5	5	5						
COc1ccc(-n2c(=O)c(C(=O)C3=C(O)CCCC3=O)nc3ccc(Cl)cc32)cc1 [II-196]	4	5	5	4	5	5	5	5						
COCCn1c(=O)c(C(=O)C2=C(O)CCCC2=O)nc2cccnc21 [III-88]	5	5	4	5	5	5	5	5						
COc1ccccc1-n1c(=O)c(C(=O)C2=C(O)CCCC2=O)nc2cccnc21 [IV-52]				5	4	5	5	5	5	5	5			
COc1cc(OC)cc(-n2c(=O)c(C(=O)C3=C(O)CCCC3=O)nc3ccccc32)c1 [II-173]	5	5	5	4	5	5	5	4						
O=C1CCCC(O)=C1C(=O)c1nc2cc(F)cc(F)c2n(-c2ccccc2)c1=O [II-261]	5	5	5	4	5	5	5	5						
CCOc1ccc(-n2c(=O)c(C(=O)C3=C(O)CCCC3=O)nc3ccccc32)cc1 [II-69]	5	5	5	4	5	5	5	5						
CCc1ccc(-n2c(=O)c(C(=O)C3=C(O)CCCC3=O)nc3cccnc32)cc1 [IV-24]	5	5	5	5	5	4	5	5						
O=C1CCCC(O)=C1C(=O)c1nc2cccnc2n(CCF)c1=O [III-45]	4	5	5	4	5	5	5	5						
Cc1cnc(-n2c(=O)c(C(=O)C3=C(O)CCCC3=O)nc3ccccc32)s1 [I-380]	4	5	5	5	5							5	5	4
CCCCn1c(=O)c(C(=O)C2=C(O)CCCC2=O)nc2c(Cl)cccc21 [I-364]	4	5	5	5	5							5	5	5
O=C1CCCC(O)=C1C(=O)c1nc2cccnc2n(-c2cccc(Br)c2)c1=O [IV-17]	5	5	5	5	5	5	5	5						
O=C1CCCC(O)=C1C(=O)c1nc2cccnc2n(Cc2ccccc2)c1=O [III-107]	5	5	5	4	5	5	5	4						
COCCn1c(=O)c(C(=O)C2=C(O)CCCC2=O)nc2cccc(Cl)c21 [I-230]	5	5	5	4	5							5	5	5
CN1C(=O)COc2ccc(-n3c(=O)c(C(=O)C4=C(O)CCCC4=O)nc4ccccc43)cc21 [I-275]	4	5	5	4	5							4	5	5
